Literature values, collected in patent US20170080013A1, “METHODS AND COMPOSITIONS FOR DERMATOLOGICAL USE COMPRSING HYDROCORTISONE ACETATE AND BIOPOLYMERS” (APEX LABORATORIES PRIVATE LIMITED, priority 2015, published 2017).

CC(=O)OCC(=O)[C@@]1(O)CC[C@H]2[C@@H]3CCC4=CC(=O)CC[C@]4(C)[C@H]3[C@@H](O)C[C@@]21C [Hydrocortisone acetate, 11β, 17-dihydroxy-3, 20-dioxopregn-4-en-21-yl acetate]
Solubility in alcohol (alcohol): slightly soluble
Solubility in chloroform (chloroform): slightly soluble
Solubility in water (water): insoluble
